Several values for one entry are separate records, joined by “and”; a condition that tells them apart may be missing. Equal values may be shown once. Read-outs that look alike come from different tables or passages of the source. Each block holds one compound with its values, some of them ahead of it.
Key:
[1] = cited from earlier work
[2] = cited from earlier work; remark: listed apart in the source
SGLT2 = target: T1, SGLT2 (Homo sapiens, UniProt P31639); conditions: cited from earlier work
T1 sequence (P31639 1-672): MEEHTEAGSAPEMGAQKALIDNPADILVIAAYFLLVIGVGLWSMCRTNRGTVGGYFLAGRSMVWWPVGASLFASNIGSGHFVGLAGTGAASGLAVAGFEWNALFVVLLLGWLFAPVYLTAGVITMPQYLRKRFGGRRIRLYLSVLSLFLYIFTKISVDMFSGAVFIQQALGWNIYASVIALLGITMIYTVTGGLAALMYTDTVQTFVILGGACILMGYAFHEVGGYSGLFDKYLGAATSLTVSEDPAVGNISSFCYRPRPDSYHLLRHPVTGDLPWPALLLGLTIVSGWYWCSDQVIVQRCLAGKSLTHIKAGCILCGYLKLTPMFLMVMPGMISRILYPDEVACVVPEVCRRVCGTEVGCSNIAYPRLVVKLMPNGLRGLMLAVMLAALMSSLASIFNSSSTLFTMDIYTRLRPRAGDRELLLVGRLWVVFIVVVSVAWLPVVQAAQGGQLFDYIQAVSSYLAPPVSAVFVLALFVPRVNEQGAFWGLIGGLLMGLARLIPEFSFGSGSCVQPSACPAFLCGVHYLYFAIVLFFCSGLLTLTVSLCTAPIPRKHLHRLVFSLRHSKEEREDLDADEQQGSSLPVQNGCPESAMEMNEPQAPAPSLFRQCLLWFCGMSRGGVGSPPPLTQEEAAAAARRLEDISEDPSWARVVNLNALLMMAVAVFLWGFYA

vSMCs = conditions: via ROS-Nrf2 pathway; cited from earlier work
AAA [3] = conditions: PPE induced AAA; cited from earlier work
[4] = cited from earlier work; remark: listed apart in the source
[5] = mice; cited from earlier work
human VSMCs = conditions: dependent on TRAF3IP2/ROS/NLRP3/caspase-1; cited from earlier work
[6] = cited from earlier work; remark: listed apart in the source
AAA [7] = conditions: apoE-/- Ang II induction model; cited from earlier work
[8] = system: rat aortic smooth muscle cells; conditions: in vitro; cited from earlier work
abdominal PVAT = conditions: mice fed with Western diet; cited from earlier work
[9] = 28-day study, 28 volunteers; cited from earlier work
[10] = high-fat diet fed mice; cited from earlier work
AAA [11] = conditions: murine models; cited from earlier work
[12] = in vivo
[13] = cited from earlier work; remark: listed apart in the source

SMILES: Cc1ccc([C@@H]2O[C@H](CO)[C@@H](O)[C@H](O)[C@H]2O)cc1Cc1ccc(-c2ccc(F)cc2)s1 [Canagliflozin]
Protein binding [1]: 99%
t1/2 ([2]; 100 mg dose): 10.6 h
t1/2 (hours) ([2]; 100 mg dose): 10.6 (100 mg dose); hours
Bioavailability ([2]; 300 mg dose): 65% (300 mg dose)
t1/2 ([2]; 300 mg dose): 13.1 h
t1/2 (hours) ([2]; 300 mg dose): 13.1 (300 mg dose) hours
tmax ([2]; in vivo): 1 to 2 h
SGLT2 selectivity over SGLT1 (SGLT2): 250 fold
expression of heme oxygenase-1 (vSMCs): stimulates

SMILES: CCOc1ccc(Cc2cc([C@@H]3O[C@H](CO)[C@@H](O)[C@H](O)[C@H]3O)ccc2Cl)cc1 [Dapagliflozin, (2S,3R,4R,5S,6R)-2-{4-chloro-3-[(4-ethoxyphenyl)methyl]phenyl}-6-(hydroxymethyl)oxane-3,4,5-triol]
aneurysmal induction and expansion (AAA [3]): significantly impeded
Bioavailability ([2]; in vivo): 78%
t1/2 ([2]; in vivo): 12.9 h
tmax ([2]; in vivo): 1 to 1.5 h
SGLT2 selectivity over SGLT1 (SGLT2): 1200 fold

SMILES: OC[C@H]1O[C@@H](c2ccc(Cl)c(Cc3ccc(O[C@H]4CCOC4)cc3)c2)[C@H](O)[C@@H](O)[C@@H]1O [Empagliflozin]
Bioavailability ([4]; dogs): 89%
Bioavailability [5]: 90-97% and 90–97%
Cmax ([2]; 10 mg dose): 259 nM
t1/2 ([2]; 10 mg dose): 13.2 h
t1/2 (hours) ([2]; 10 mg dose): 13.2 (10 mg dose); hours
Cmax ([2]; 25 mg dose): 687 nM
t1/2 ([2]; 25 mg dose): 13.3 h
t1/2 (hours) ([2]; 25 mg dose): 13.3h (25 mg dose) hours
tmax ([2]; in vivo): 1.5 h
secretion of IL-1b and IL-18 (human VSMCs): inhibits
Bioavailability ([6]; rats): 31%
effect on AAA (AAA [7]): impedes AAA
aortic smooth muscle cell proliferation [8]: significantly decreased

SMILES: CCOc1ccc(Cc2cc([C@]34OC[C@](CO)(O3)[C@@H](O)[C@H](O)[C@H]4O)ccc2Cl)cc1 [Ertugliflozin]
Protein binding [1]: 95%
Cmax ([2]; 15 mg dose): 268 ng/mL (15 mg dose)
Bioavailability ([2]; in vivo): 70-90%
t1/2 ([2]; in vivo): 11 to 17 h
tmax ([2]; in vivo): 0.5 to 1.5 h
SGLT2 selectivity over SGLT1 (SGLT2): 2000 fold

SMILES: OC[C@H]1O[C@@H](c2ccc(F)c(Cc3cc4ccccc4s3)c2)[C@H](O)[C@@H](O)[C@@H]1O [Ipragliflozin]
t1/2 (hours) ([2]; 50 mg dose): 15-16 (50 mg dose) hours and 15–16 (50 mg dose) hours
tmax ([2]; 50 mg): 1 h
Bioavailability ([2]; in vivo): 90%
SGLT2 selectivity over SGLT1 (SGLT2): 360 fold
inflammation, fibrosis, and adipocyte death of abdominal PVAT (abdominal PVAT): attenuated

SMILES: C[C@@H](O)CCOC(=O)C[C@@H](C)O [KE-BHB]
effect on body weights or composition, fasting blood glucose, cholesterol, triglyceride, or electrolyte concentrations, blood gases or kidney function [9]: no effect

SMILES: CCOc1ccc(Cc2cc([C@@H]3S[C@H](CO)[C@@H](O)[C@H](O)[C@H]3O)c(OC)cc2C)cc1 [Luseogliflozin]
Bioavailability ([4]; male dogs): 97.2%
intimal hyperplasia after bilateral femoral artery wire injury [10]: reducing intimal hyperplasia
Cmax ([2]; in vivo): 119 ± 27.0 ng/mL
t1/2 ([2]; in vivo): 9.24 ± 0.928 h
tmax ([2]; in vivo): 0.625 ± 0.354 h
SGLT2 selectivity over SGLT1 (SGLT2): 1650 fold
Bioavailability ([6]; female rats): 58.2%

SMILES: Nc1ccccc1NC(=O)c1ccc(CNC(=O)OCc2cccnc2)cc1 [MS-275]
effect on AAA (AAA [11]): reduce AAA

persistence of BHB elevation [12]: ~ 2.5 hours
SMILES: C[C@@H](O)CC(=O)O [R-BHB, R-beta hydroxybutyrate]

persistence of BHB elevation [12]: 4 to 5 h
SMILES: C[C@H](O)CC(=O)O [S-BHB]
stability in human plasma compared with R/D BHB ([13]; human plasma): far more stable
sustained in plasma, relative to (D/R) BHB ([13]; plasma): more than 2 x

SMILES: CCc1ccc(Cc2ccc3c(c2)[C@]2(OC3)O[C@H](CO)[C@@H](O)[C@H](O)[C@H]2O)cc1 [Tofogliflozin]
Protein binding [1]: 83%
Cmax ([2]; 10 mg dose): 489 ng/mL
t1/2 ([2]; 10 mg dose): 6.8 h
Bioavailability ([2]; 10 mg): 97.50%
tmax ([2]; 10 mg): 0.75 h
SGLT2 selectivity over SGLT1 (SGLT2): 2900 fold
